3 molecules from patent publication US8859574B2 (IRM LLC, priority 2008, dated 2014) can be followed below.

Molecules are shown by their SMILES.

By IC50 is commonly meant the midpoint of a concentration-inhibition curve. Read a low IC50 as higher potency.

For the experiment, the target named is T1, IGF-1R Ba/F3 (Homo sapiens, UniProt P08069).
T1 construct: fused on or other part: TEL- (or BCR-) IGF-1R in Ba/F3: the kinase part holds the site
T1 sequence (P08069 999-1274 limits assumed): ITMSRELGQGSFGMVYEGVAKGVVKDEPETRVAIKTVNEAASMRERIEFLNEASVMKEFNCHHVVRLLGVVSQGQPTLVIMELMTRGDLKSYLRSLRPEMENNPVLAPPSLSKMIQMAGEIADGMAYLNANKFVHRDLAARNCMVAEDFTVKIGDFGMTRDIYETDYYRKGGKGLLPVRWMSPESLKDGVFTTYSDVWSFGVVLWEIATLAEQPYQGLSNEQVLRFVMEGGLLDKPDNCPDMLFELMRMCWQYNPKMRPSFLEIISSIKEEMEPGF
The experiment is described as follows: Ba/F3 Cell Viability Inhibition Assay (IGF-1R Ba/F3). Format: cell-based, murine. To be noted: Tel-TK transformed Ba/F3 cells, 48 hours, Britelite luminescence. Summed up:
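IL-3-independent murine Ba/F3 cells transformed with a TEL/BCR-fused IGF-1R kinase were seeded at 3750 cells/well and exposed to serially diluted compound for 48 h at 37 °C. Viability was read by Britelite luminescence. IC50 is the concentration giving 50% of DMSO-control viability, from a logistic fit.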
In turn, `Cc1cc(C2CCN(CCO)CC2)c(C)cc1Nc1ncc(Cl)c(Nc2cc(C3CC3)[nH]n2)n1` [Compound 204, 2-(4-(4-(5-chloro-4-(5-cyclopropyl-1H-pyrazol-3-ylamino)pyrimidin-2-ylamino)-2,5-dimethylphenyl)piperidin-1-yl)ethanol] registered an IC50 of 16 nM.

`CNC(=O)CN1CCC[C@@H](c2cc(C)c(Nc3ncc(Cl)c(Nc4cc(C)[nH]n4)n3)cc2C)C1` (single isomer, unassigned) [Compound 208] registered an IC50 of 10 nM.

`Cc1cc(Nc2nc(Nc3cc(C)c(C4CCN(CCc5nc(C(C)C)no5)CC4)cc3C)ncc2Cl)n[nH]1` [Compound 269, 5-Chloro-N2-(4-(1-(2-(3-isopropyl-1,2,4-oxadiazol-5-yl)ethyl)piperidin-4-yl)-2,5-dimethylphenyl)-N4-(5-methyl-1H-pyrazol-3-yl)pyrimidine-2,4-diamine] gave an IC50 of 39 nM.
